# Reference: ChEMBL document CHEMBL2074084, “Cloning and functional characterization of a novel rat organic anion transporter mediating basolateral uptake of methotrexate in the kidney” (J Biol Chem, 1996)
# B1: Solute carrier organic anion transporter family member 1A3 (Rattus norvegicus) (protein)
# chain: MGDLEKGAATHGAGCFAKIKVFLMALTCAYVSKSLSGTFMSSMLTQIERQFGIPTAIVGFINGSFEIGNLLLIIFVSYFGMKLHRPIVIGVGCAVMGLGCFIISLPHFLMGRYEYETTILPTSNLSSNSFLCMENQTQTLNPAQDPAECVKEVKSLMWIYVLVGNIIRGIGETPIMPLGVSYIENFAKSENSPLYIGILETGKMIGPIFGLLLGSFCASIYVDTGSVNTDDLTITPTDIRWVGAWWIGFLVCAGVNILISIPFFFFPKTLPKEGLQENVDGTENAKEESTEKRPRKKNRGITKDFFPFLKSPVLQPDLHAVHPYKVLQVNAFNIYFSFLPKYLENQYGKSTAEVIFLMGVYNLPAICIGYLIAGFMMKKFKITVKTAAFLAFCLSLSEYSFGFCNFLITCDNVPVAGLTNSYERDQKPLYLENNVLADCNTRCSCLTKTWDPVCGDNGLAYMSACLAGCEKSVGTGTNMVFHNCSCIQSPGNSSAVLGLCNKGPECTNKLQYLLILSGFLSILYSFAAIPGYMVFLRCIKSEEKSLGIGIHAFCIRVFAGIPAPIYFGALIDRTCLHWGTQKCGAPGACRMYDINSFRRIYLGMSAALRGSSYLPAFVIVILTRKFSLPGKINSSEMEIAEMKLTEKESQCTDVHRNPKFKNDGELKTKL
# Legend:
# Type in all cases: functional, cell-based
# [1] = target: T1, Solute carrier organic anion transporter family member 1A3 (Rattus norvegicus, UniProt P70502); test: TP_TRANSPORTER: inhibition of MTX uptake (MTX: 0.026 uM, BSP: 100 uM) in OAT-K1-expressing LLC-PK1 cells; conditions: pig, llc-pk1, 100 µM
# T1 sequence (P70502 whole entry): B1 chain
# [2] = target: T1, Solute carrier organic anion transporter family member 1A3; test: TP_TRANSPORTER: inhibition of MTX uptake (MTX: 0.026 uM, Folic acid: 100 uM) in OAT-K1-expressing LLC-PK1 cells; conditions: pig, llc-pk1, 100 µM
# [3] = substrate: CN(Cc1cnc2nc(N)nc(N)c2n1)c1ccc(C(=O)N[C@@H](CCC(=O)O)C(=O)O)cc1; test: TP_TRANSPORTER: uptake in OAT-K1-expressing LLC-PK1 cells
molecule,measurement,setting,value
O=C1OC(c2ccc(O)c(S(=O)(=O)[O-])c2)(c2ccc(O)c(S(=O)(=O)[O-])c2)c2c(Br)c(Br)c(Br)c(Br)c21.[Na+].[Na+] [SULFOBROMOPHTHALEIN SODIUM],Activity,[1],inhibitor [(at a rough estimate) 35 % of control]
Nc1nc2ncc(CNc3ccc(C(=O)N[C@@H](CCC(=O)O)C(=O)O)cc3)nc2c(=O)[nH]1 [FOLIC ACID],Activity,[2],inhibitor [(at a rough estimate) 35 % of control]
B1,Km,[3],1 µM
